Results: patent US6235736A, “3-anilino-2-cycloalkenone derivatives” (Nikken Chemicals Co., Ltd., priority 1997, dated 2001)

Experiments:
[1] = test system: TPA induced ear edema in mouse; assay: TPA induced mouse ear edema assay; type: in vivo, mouse (male ICR); conditions: 0.1 mg applied to right ear immediately after TPA; 6 hour
Description: Male ICR mice, 5 week old, were divided into groups of seven to eight. 2 μg of TPA (phorbor 12-ministate; Sigma Co.) in 20 μl acetone was applied to the inner and outer surface of right ear of each mouse to cause a reaction. 0.1 mg of compound was dissolved in 20 μl of a tetrahydrofuran-methanol mixture (mixture ratio 1:1) and the solution (20 μl) applied to the right ear immediately after TPA treatment. After 6 hour, the animals were sacrificed and right ear was punched out (.phi. […]) and weighed. The effect of comppund.was calculated as % inhibition as follows: [formula]

Type IV PDE = assay: PDE IV inhibitory activity (isozyme partially purified from rat neutrophils, 3H-cAMP substrate); type: biochemical; conditions: rat neutrophil PDE IV, 30° C., 30 minutes, read-out: PDE IV inhibiting action IC50
Description: Type I, III, IV, and V PDE isozymes were prepared to study the PDE inhibitory activities of and selectivities with the compound of the invention [Trends Pharmacol Sci., 12, 19-27 (1991)]. Type I PDE was purchased from Sigma Corp. Type III, IV, and V PDE isozymes were partially purified from platelets (Type III and V) or neutrophils (Type IV) collected from rats. Each enzyme source was homogenized in a buffer (pH 6.5) containing 20 mM bisTris, 2 mM EDTA (i.e., ethlenediamine tetraacetate), 2-mercaptoethanol, 0.001 mM pepstatin and 0.01 mM leupeptin and was centrifuged at 30000×G for 30 minutes to obtain a supernatant, which was applied to an ion exchange column (Q-sepharose first flow, Pharmacia Corp.) and was eluted with 0 to 1M sodium acetate. Partially purified isozymes were identified by observing the inhibitory effects of conventional inhibitors.
Each PDE isozyme and the test compound dissolved in DMSO (i.e., dimethylsulfoxide) were added to 50 mM Tris--HCI buffer containing 5 mM magnesium chloride. ^3 H-cAMP (for type III and IV PDE) or ^3 H-cGMP (for type I and V PDE) were added as substrates and were reacted at 30° C. for 30 minutes. The reaction was terminated by placing the test tube in boiling water of 100° C. for 5 minutes. The nucleotides formed by PDE were broken down to ^3 H-adenosine or ^3 H-guanosine by 5'-nucleotidase. The substrate and reaction product were separated through an ion-exchange column (i.e., QAE sephadex, Pharmacia Corp.)
The eluted ^3 -H-nucleoside was measured for its radioactivity by a liquid scintillation counter. The inhibitory activities of the compound of the present invention are shown by the IC50 value (M). Further, the inhibitory activities of the test samples against type I, III, and V PDE are 1/10 or less than that against Type IV PDE.

SMILES | % Inhibition of ear edema [1] | IC50 (Type IV PDE)
COc1ccc(NC2=CC(=O)CCC2)cc1O[C@@H]1C[C@H]2CC[C@@H]1C2 (relative stereo) [Compound No. 83, 3-[3-[rel(1R,2R,4S)-bicyclo[2.2. 1]hept-2-yloxy]-4-methoxyanilino]-2-cyclohexen-1-one] | 70.5% | 1.6 µM
COc1ccc(N(Cc2ccccc2)C2=CC(=O)CCC2)cc1O[C@@H]1C[C@H]2CC[C@@H]1C2 (relative stereo) [Compound No. 84, 3-[N-benzyl-3-[rel(1R,2R,4S)-bicyclo[2.2. 1]hept-2-yloxy]-4-methoxyanilino]-2-cyclohexen-1-one] | 71.8% | 1.4 µM
COc1ccc(NC2=CC(=O)CCC2)cc1OC1CCCC1 [Compound No. 2, 3-(3-cyclopentyloxy-4-methoxyanilino)-2-cyclohexen-1-one] | 65.0% | 3.7 µM
COc1ccc(NC2=C(Br)C(=O)CC2)cc1OC1CCCC1 [Compound No. 7, 2-bromo-3-(3-cyclopentyloxy-4-methoxyanilino)-2-cyclopenten-1-one] | 55.8% | 0.28 µM
COc1ccc(NC2=C(C)C(=O)CC2)cc1OCCc1ccccc1 [Compound No. 12, 3-(4-methoxy-3-phenethyloxyanilino)-2-methyl-2-cyclopenten-1-one] | 52.5% | 0.71 µM
COc1ccc(NC2=CC(=O)CC2)cc1OC1CCCCC1 [Compound No. 13, 3-(3-cyclohexyloxy-4-methoxyanilino)-2-cyclopenten-1-one] | 51.8% | 7.4 µM
COc1ccc(NC2=C(C)C(=O)CC2)cc1OCC1CC1 [Compound No. 16, 3-(3-cyclopropylmethoxy-4-methoxyanilino)-2-methyl-2-cyclogenten-1-one] | 72.1% | 1 µM
CCCCOc1cc(NC2=CC(=O)CC2)ccc1OC [Compound No. 17, 3-(3-butoxy-4-methoxyanilino)-2-cyclopenten-1-one] | 57.1% | 14 µM
COc1ccc(NC2=CC(=O)CCC2)cc1OC1Cc2ccccc2C1 [Compound No. 19, 3-[3-(2-indanyloxy)-4-methoxyanilino]-2-cyclohexen-1-one] | 76.3% | 1.8 µM
COc1ccc(N(C)C2=CC(=O)CC2)cc1OC1CCCC1 [Compound No. 26, 3-(3-cyclopentyloxy-4-methoxy-N-methylanilino)-2-cyclopenten-1-one] | 82.0% | 0.8 µM
COc1ccc(N(C)C2=CC(=O)CCC2)cc1OC1CCCC1 [Compound No. 27, 3-(3-cyclopentyloxy-4-methoxy-N-methylanilino)-2-cyclohexen-1-one] | 86.4% | 1.9 µM
COc1ccc(N(Cc2ccncc2)C2=CC(=O)CC2)cc1OC1CCCC1 [Compound No. 28, 3-[3-cyclopentyloxy-4-methoxy-N-(4-pyridylmethyl)anilino]-2-cyclopenten-1-one] | 71.5% | 4.3 µM
COc1ccc(N(Cc2ccccc2)C2=CC(=O)CC2)cc1OC1CCCC1 [Compound No. 30, 3-(N-benzyl-3-cyclopentyloxy-4-methoxyanilino)-2-cyclopenten-1-one] | 78.4% | 2.6 µM
CCC1=C(Nc2ccc(OC)c(OC3CCCC3)c2)CCC1=O [Compound No. 31, 3-(3-cyclopentyloxy-4-methoxyanilino)-2-ethyl-2-cyclopenten-1-one] | 73.4% | 0.22 µM
COc1ccc(NC2=C(Cc3ccccc3)C(=O)CC2)cc1OC1CCCC1 [Compound No. 33, 2-benzyl-3-(3-cyclopentyloxy-4-methoxyanilino)-2-cyclopenten-1-one] | 81.7% | 0.4 µM
COc1ccc(NC2=C(C)C(=O)CC2)cc1OCCC1Cc2ccccc2C1 [Compound No. 35, 3-[3-[2-(2-indanyl)ethoxy]-4-methoxyanilino]-2-methyl-2-cyclopenten-1-one] | 52.5% | 0.29 µM

SMILES | % Inhibition of ear edema [1] | IC50 (Type IV PDE)
COc1ccc(NC2=C(C)C(=O)CC2)cc1OC1CCOC1 (stereo not shown) [Compound No. 37, 3-[4-methoxy-3-(3-2,3,4,5-tetrahydrofuranyloxy)anilino]-2-methyl-2-cyclopenten-1-one] | 51.8% | 1.2 µM
COc1ccc(NC2=C(C)C(=O)CCC2)cc1OC1Cc2ccccc2C1 [Compound No. 48, 3-[3-(2-indanyloxy)-4-methoxyanilino]-2-methyl-2-cyclohexen-1-one] | 53.8% | 0.082 µM
COc1ccc(NC2=CC(=O)CC2)cc1OCC1(c2ccccc2)CC1 [Compound No. 49, 3-[4-methoxy-3-[(1-phenylcyclopropyl)methoxy]anilino]-2-cyclopenten-1-one] | 54.3% | 2.3 µM
COc1ccc(NC2=C(C)C(=O)CC2)cc1OCC1(c2ccccc2)CC1 [Compound No. 50, 3-[4-methoxy-3-[(1-phenylcyclopropyl)methoxy]anilino]-2-methyl-2-cyclopenten-1-one] | 62.6% | 0.62 µM
COc1ccc(NC2=C(C)C(=O)CCC2)cc1OCCC1Cc2ccccc2C1 [Compound No. 53, 3-[3-[2-(2-indanyl)ethoxy]-4-methoxyanilino]-2-methyl-2-cyclohexen-1-one] | 55.9% | 0.22 µM
COc1ccc(NC2=C(C)C(=O)CCC2)cc1OC1CCCCC1 [Compound No. 55, 3-(3-cyclohexyloxy-4-methoxyanilino)-2-methyl-2-cyclohexen-1-one] | 70.8% | 2 µM
COc1ccc(N(Cc2ccccc2)C2=CC(=O)CC2)cc1OC1CCCCC1 [Compound No. 56, 3-(N-benzyl-3-cyclohexyloxy-4-methoxyanilino)-2-cyclopenten-1-one] | 86.1% | 5.5 µM
COc1ccc(N(Cc2ccc3ccccc3c2)C2=CC(=O)CC2)cc1OC1CCCCC1 [Compound No. 57, 3-[3-cyclohexyloxy-4-methoxy-N-(2-naphthylmethyl)anilino]-2-cyclopenten-1-one] | 89.7% | 1.9 µM
COc1ccc(N(Cc2ccc3ccccc3n2)C2=CC(=O)CC2)cc1OC1CCCC1 [Compound No. 58, 3-[3-cyclopentyloxy-4-methoxy-N-(2-quinolylemethyl)anilino]-2-cyclopenten-1-one] | 58.7% | 0.53 µM
CCCN(C1=CC(=O)CC1)c1ccc(OC)c(OC2CCCC2)c1 [Compound No. 59, 3-(3-cyclopentyloxy-4-methoxy-N-propylanilino)-2-cyclopenten-1-one] | 60.1% | 7.4 µM
COc1ccc(N(C2=CC(=O)CC2)C2CCCC2)cc1OC1CCCC1 [Compound No. 60, 3-(N-cyclopentyl-3-cyclopentyloxy-4-methoxyanilino)-2-cyclopenten-1-one] | 78.5% | 44 µM
COc1ccc(N(Cc2ccccn2)C2=CC(=O)CC2)cc1OC1CCCC1 [Compound No. 61, 3-[3-cyclopentyloxy-4-methoxy-N-(2-pyridylmethyl)anilino]-2-cyclopenten-1-one] | 66.2% | 3.2 µM
COc1ccc(N(Cc2ccc3ccccc3c2)C2=CC(=O)CC2)cc1OC1CCCC1 [Compound No. 62, 3-[3-cyclopentyloxy-4-methoxy-N-(2-naphthylmethyl)anilino]-2-cyclopenten-1-one] | 78.8% | 1.2 µM
COc1ccc(N(Cc2cccnc2)C2=CC(=O)CC2)cc1OC1CCCC1 [Compound No. 63, 3-[3-cyclopentyloxy-4-methoxy-N-(3-pyridylmethyl)anilino]2-cyclopenten-1-one] | 75.4% | 5.3 µM
CCCCCN(C1=CC(=O)CC1)c1ccc(OC)c(OC2CCCC2)c1 [Compound No. 64, 3-(3-cyclopentyloxy-4-methoxy-N-pentylanilino)-2-cyclopenten-1-one] | 52.0% | 4.4 µM
COc1ccc(N(C)C2=CC(=O)CCC2)cc1OC1Cc2ccccc2C1 [Compound No. 65, 3-[3-(2-indanyloxy)-4-methoxy-N-methylanilino]-2-cyclohexen-1-one] | 52.5% | 0.29 µM
